For this test, the system named is 3T3. The test is described as follows: IGF-1-induced DNA synthesis (3H-thymidine incorporation). The test is classed as cell-based. The settings on record: NIH3T3, activated with 50 ng/mL IGF-1, read-out: inhibited 3T3 proliferation. As to the method: IGF-1-Induced DNA Synthesis.
Human tumor cell lines or a rat fibroblast cell line are plated out in flat-well plates in complete medium and allowed to adhere overnight. The cells are then starved in medium containing 0.1% bovine serum albumin (BSA) overnight, pre-incubated for 1 h with or without dilutions of compound, then activated overnight with 50 ng/mL insulin-like growth factor (IGF-1). Proliferation is determined by the level of ^3H-thymidine incorporation into DNA.
(Dividing cells build labelled thymidine or BrdU into new DNA.)
For the molecule `COc1cc(Nc2nccc(Nc3cnc4ccccc4c3)n2)cc(OC)c1OC` [Example 1, N^4-Quinolin-3-yl-N^2-(3,4,5-trimethoxyphenyl)pyrimidine-2,4-diamine], the IC50 is under 150 nM. On to `COc1cc(Nc2nccc(Nc3ccc4ncccc4c3)n2)cc(OC)c1OC` [Example 14, N^4-quinolin-6-yl-N^2-(3,4,5-trimethoxyphenyl)-pyrimidine-2,4-diamine], for which the IC50 was under 150 nM. Consider `COc1cc(C)c(Nc2nccc(Nc3cnc4ccccc4c3)n2)cc1OC` [Example 20, N^2-(3,4-dimethoxy-6-methylphenyl)-N^4-quinolin-3-yl-pyrimidine-2,4-diamine], for which the IC50 was under 150 nM. `c1ccc2ncc(Nc3ccnc(Nc4ccc(N5CCOCC5)cc4)n3)cc2c1` [Example 48, N^2-(4-(4-morpholinyl)phenyl)-N -(3-quinolinyl)-2,4-pyrimidinediamine]: the IC50 was under 150 nM. Take `c1ccc2ncc(Nc3ccnc(Nc4ccc(N5CCOCC5)nc4)n3)cc2c1` [Example 49, N^2-(6-(4-morpholinyl)-3-pyridinyl)-N^4-(3-quinolinyl)-2,4-pyrimidinediamine]: the IC50 was under 150 nM. The result for `CC(=O)c1ccc(Nc2nccc(Nc3cnc4ccccc4c3)n2)cc1` [Example 59, 1-(4-((4-(3-quinalinylamino)-2-pyrimidinyl)amino)phenyl)ethanone] reads under 150 nM. In the case of `CN1CCN(c2ccc(Nc3nccc(Nc4cnc5ccccc5c4)n3)cc2)CC1` [Example 84, N^2-(4-(4-methyl-1-piperazinyl)phenyl)-N^4-(3-qulnolinyl)-2,4-pyrimidinediamine], the IC50 was under 150 nM. The result for `COc1cc(Nc2nccc(Nc3cnc4ccccc4c3)n2)ccc1C(N)=O` [Example 94, 2-(Methoxy)-4-((4-(3-quinolinylamino)-2-pyrimidinyl)amino)benzamide] reads under 150 nM. The result for `c1ccc2ncc(Nc3ccnc(Nc4ccc(OCCCN5CCCCC5)cc4)n3)cc2c1` [Example 98, N^2-[4-(3-Piperidin-1-yl-propoxy)-phenyl]-N^4-4-quinolin-3-yl-pyrimidine-2,4-diamine] reads under 150 nM; that for `c1ccc2ncc(Nc3ccnc(Nc4ccc(OCCN5CCCCC5)cc4)n3)cc2c1` [Example 99, N^2-(4-((2-(1-Piperidinyl)ethyl)oxy)phenyl)-N^4-(3-quinolinyl)-2,4-pyrimidinediamine], under 150 nM; that for `COc1ccc(Nc2nccc(Nc3cnc4ccccc4c3)n2)cc1CCN(C)C` [Example 100], under 150 nM.

On to `c1cc(Nc2nccc(Nc3cnc4ccccc4c3)n2)cc(-c2cnco2)c1` [Example 104, N^2-(3-(1,3-oxazol-5-yl)phenyl)-N^4-(3-quinolinyl)-2,4-pyrimidinediamine], for which the IC50 is under 150 nM. The result for `c1cc(Nc2nccc(Nc3ccc4ncccc4c3)n2)cc(-c2cnco2)c1` [Example 105, N^2-(3-(1,3-oxazol-5-yl)phenyl)-N^4-(6-quinolinyl)-2,4-pyrimidinediamine] reads under 150 nM; that for `CC(=O)N1CC(C)(C)c2ccc(Nc3nccc(Nc4cnc5ccccc5c4)n3)cc21` [Example 110, N^2-(1-acetyl-3,3-dimethyl-2,3-dihydro-1H-indol-6-yl)-N^4-(3-quinolinyl)-2,4-pyrimidinediamine], under 150 nM; that for `COc1cc(Nc2nccc(Nc3ccc4nc(C)ccc4c3)n2)cc(OC)c1OC` [Example 118, N^4-(2-Methyl-6-quinolinyl)-N^2-(3,4,5-tris(methoxy)phenyl)-2,4-pyrimidinediamine], under 150 nM. For `COc1cc(Nc2nccc(Nc3cc4ccccc4c(OC)n3)n2)cc(OC)c1OC` [Example 130, N^4-(1-Methoxy-isoquinolin-3-yl)-N^2-(3,4,5-trimethoxy-phenyl)-pyrimidine-2,4-diamine], the IC50 is under 150 nM.

Consider `COc1cc(Nc2nccc(Nc3cnc4ccccc4c3)n2)ccc1OCCN1CCN(c2nccc(Nc3cnc4ccccc4c3)n2)CC1` [Example 132, N^2-[3-Methoxy-4-(2-{4-[4-(quinolin-3-ylamino)-pyrimidin-2-yl]-piperazin-1-yl}-ethoxy)-phenyl]-N^4-quinolin-3-yl-pyrimidine-2,4-diamine], for which the IC50 is under 150 nM. Regarding `COc1ccc2ncc(Nc3ccnc(Nc4cc(OC)c(OC)c(OC)c4)n3)cc2c1` [Example 134, N^4-(6-Methoxy-quinolin-3-yl)-N^2-(3,4,5-tris(methoxy)phenyl)-2,4-pyrimidinediamine], the IC50 is under 150 nM.

As for `COc1cc(Nc2nccc(Nc3cnc4ccc(O)cc4c3)n2)cc(OC)c1OC` [Example 135, N^4-(6-Hydroxy-quinolin-3-yl)-N^2-(3,4,5-tris(methoxy)phenyl)-2,4-pyrimidinediamine], the IC50 is under 150 nM. On to `COc1ccc2ncc(Nc3ccnc(Nc4cc(OC)c(OC)cc4C)n3)cc2c1` [Example 137, N^4-(6-Methoxy-3-quinolinyl)-N^2-(2-methyl-4,5-dimethoxyphenyl)-2,4-pyrimidinediamine], for which the IC50 is under 150 nM. Take `COc1cc(Nc2nccc(Nc3cnc4ccc(OC(F)(F)F)cc4c3)n2)cc(OC)c1OC` [Example 139, N^2-(3,4,5-Tris(methoxy)phenyl)-N^4-(6-trifluoromethoxy-3-quinolinyl)-2,4-pyrimidinediamine]: the IC50 is under 150 nM. For the molecule `COc1cc(C)c(Nc2nccc(Nc3cnc4ccc(OC(F)(F)F)cc4c3)n2)cc1OC` [Example 140, N^2-(2-Methyl-4,5-dimethoxyphenyl)-N^4-(6-trifluoromethoxy-3-quinolinyl)-2,4-pyrimidinediamine], the IC50 was under 150 nM. As to `COc1cc(Nc2nccc(Nc3cnc4ccccc4c3)n2)ccc1/C=C/C(=O)N1CCCC1` [Example 148, 3-{2-Methoxy-4-[4-(quinolin-3-ylamino)-pyrimidin-2-ylamino]-phenyl}-1-pyrrolidin-1-yl-propenone], the IC50 is under 150 nM. Regarding `COc1cc(Nc2nccc(Nc3cnc4ccccc4c3)n2)ccc1CCC(=O)N1CCCC1` [Example 149, 3-{2-Methoxy-4-[4-(quinolin-3-ylamino)-pyrimidin-2-ylamino]-phenyl}-1-pyrrolidin-1-yl-propanone], the IC50 is under 150 nM. As for `COc1cc(Nc2nccc(Nc3cnc4ccccc4c3)n2)ccc1CCCN1CCCC1` [Example 150, N^2-[3-Methoxy-4-(3-pyrrolidin-1-yl-propyl)-phenyl]-N-4-quinolin-3-yl-pyrimidine-2,4-diamine], the IC50 was under 150 nM.

With `COc1cc(Nc2nccc(Nc3cnc4ccccc4c3)n2)ccc1OCCC1CCN(c2nccc(Nc3cnc4ccccc4c3)n2)CC1` [Example 151, N^2-[3-Methoxy-4-(2-{1-[4-(quinolin-3-ylamino)-pyrimidin-2-yl]-piperidin-4-yl}-ethoxy)-phenyl]-N^4-quinolin-3-yl-pyrimidine-2,4-diamine], the IC50 was under 150 nM.
